The values that follow come from patent publication US20230303544A1, “LMO2 PROTEIN INHIBITORS” (UNIVERSITY OF OXFORD, priority 2020, published 2023).

The term IC50 denotes the concentration that gives 50% inhibition.

Series [1] deals with T1, LMO2-iDAb LMO2dm3 interaction (Homo sapiens, UniProt P25791).
T1 construct: LMO2 cDNA was cloned into the pEF-RLuc8-MCS and pEF-MCS-RLuc8 plasmids; expressed in transfected cells; host or cells: HEK293T
T1 sequence (P25791 1-158): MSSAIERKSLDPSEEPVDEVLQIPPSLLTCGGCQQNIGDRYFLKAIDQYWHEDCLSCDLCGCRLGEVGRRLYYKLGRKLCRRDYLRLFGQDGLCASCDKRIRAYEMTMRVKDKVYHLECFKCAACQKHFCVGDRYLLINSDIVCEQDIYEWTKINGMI
The series is described as follows: LMO2-iDAb LMO2dm3 BRET assay. The class given is cell-based. To be noted: 22 h; for inhibition of LMO2-iDAb LMO2dm3 interaction (in words): BRET competition, Abd concentration 1 (or 5), 10, 20 μM; for IC50: BRET dose response, HEK293T cells, 0.01-50 μM. As for the experimental part:
For all BRET experiments (titration curves and competition assays) 650,000 HEK293T were seeded in each well of a 6 well plates. After 24 hours at 37° C., cells were transfected with a total of 1.6 μg of DNA mix, containing the donor+acceptor±competitor plasmids, using Lipofectamine 2000 transfection reagent (Thermo-Fisher). In dose response competition experiments, competitors were transfected with the following amount of DNA: 0.1; 0.5 and 1 μg. In single dose competition experiments, competitors were transfected with […] of DNA. Cells were detached 24 hours later, washed with PBS and seeded in a white 96-well plate (clear bottom, PerkinElmer, Cat #6005181) in OptiMEM no phenol red medium complemented with 4% FBS and cells were incubated for an additional 20-24 hours at 37° C. before the BRET assay reading. A detailed BRET protocol is provided by Bery and Rabbitts, (2019).
Compounds were prepared in 100% DMSO at 10 mM. For BRET competition assays, cells were treated with the indicated compounds at concentration of 1 (or 5), 10 and 20 μM for 22 h. For BRET-based dose response experiments, cells were treated with compounds at concentration of 0.01, 0.1, 1, 4, 10, 25 and 50 μM for 22 h. The compounds were diluted in the BRET medium: OptiMEM no phenol red (Life Technologies) supplemented with 4% FBS and with a final concentration of 0.2% DMSO.
BRET2 signal was determined immediately after injection of coelenterazine 400a substrate (10 μM final) to cells (Cayman Chemicals), using a CLARIOstar instrument (BMG Labtech) with a luminescence module. Total GFP^2 fluorescence was detected with excitation and emission peaks set at 405 nm and 515 nm respectively. Total RLuc8 luminescence was measured with the Luminescence 400-700 nm-wavelength filter.
The BRET signal or BRET ratio corresponds to the light emitted by the GFP^2 acceptor constructs (515 nm±30) upon addition of coelenterazine 400a divided by the light emitted by the RLuc8 donor constructs (410 nm±80). The background signal is subtracted from that BRET ratio using the donor-only negative control where only the RLuc8 fusion plasmid is transfected into the cells. The normalized BRET ratio is the BRET ratio normalized to a negative control (iDAb control or DMSO control) during a competition assay. Total GFP^2 and RLuc8 signals were used to control the protein expression from each plasmid.
Background: Bioluminescence resonance energy transfer reports proximity on the nanometre scale.

For series [2], the target named is T2, LMO2-ΔLID (Homo sapiens, UniProt P25791).
T2 construct: UniProt P25791; residues 26-156; hexa-histidine tag (N, cleaved yes); SUMO (N, cleaved yes); made in house; host or cells: E. coli Lemo21(DE3)
T2 sequence (P25791 with tags, fused parts or gaps): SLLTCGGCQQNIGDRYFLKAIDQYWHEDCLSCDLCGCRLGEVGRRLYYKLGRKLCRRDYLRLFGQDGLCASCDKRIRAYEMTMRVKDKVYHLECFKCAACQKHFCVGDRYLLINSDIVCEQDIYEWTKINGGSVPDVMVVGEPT
As to the kind of experiment: WaterLOGSY NMR binding to LMO2-ΔLID. The following applies: RT. As for the experimental part:
(§1) WaterLOGSY NMR method was used to measure LMO2 ligand interaction (Bataille et al., 2020). WaterLOGSY experiments were conducted at a ^1H frequency of 600 MHz using a Bruker Avance spectrometer equipped with a BBI probe. All experiments were conducted at RT. 3 mm diameter NMR tubes with a sample volume of 200 μL were used for all experiments. For LMO2-LID, solutions were buffered using a 10 mM NaPO4, 250 mM NaCl solution. For LMO2-ΔLID, solutions were buffered using a 10 mM NaPO4, 50 mM NaCl solution. The sample preparation for measuring ligand binding with LMO2-LID is exemplified as follows; the compound (10 μL of a 10 mM solution in DMSO-d6) was added to an Eppendorf tube before sequential addition of the appropriate buffer (90 μL), D2O (20 μL), and the protein (80 μL, 25 μM). The resulting solution was vortexed to mix and transferred to a 3 mm NMR tube prior to the NMR analysis. The sample preparation for measuring ligand binding with LMO2-ΔLID is exemplified as follows; the compound (10 μL of a 10 mM solution in DMSO-d6) was added to an Eppendorf tube before sequential addition of the appropriate buffer (162 μL), D2O (20 μL), and the protein (8 μL, 250 μM). The resulting solution was vortexed to mix and transferred to a 3 mm NMR tube prior to the NMR analysis. […]

Series [3] is described as follows: Parallel artificial membrane permeability assay (PAMPA). It counts as in vitro ADME. To be noted: 10 μM donor, pH 5, 6.5 and 7.4, 16 hours, 30° C. The procedure: The parallel artificial membrane permeability assay (PAMPA) was used to determine compound permeability by passive diffusion. The assay used an artificial membrane consisting of 2% phosphatidyl choline in dodecane (Sigma Aldrich, Dorset, UK). The donor plate was a MultiScreen-IP Plate with 0.45 μm hydrophobe Immobilon-P Membrane (Millipore, UK) and the acceptor plate was a MultiScreen 96-well Transport Receiver Plate (Millipore, UK). The permeability was measured at 3 different pH levels: pH 5, 6.5 and pH 7.4 in buffer containing 1% Bovine Serum Albumin (Sigma Aldrich, Dorset, UK). A 10 mM DMSO stock solution of test compound was used to prepare the 10 μM PAMPA donor solutions and calibration curves in each of the three buffers.
6 μL of the membrane solution was added to each well of the donor plate. Buffer donor solutions (200 μL) were added to the appropriate wells of the PAMPA donor plate. 300 µL per well of blank PBS (pH 7.4) was added to the PAMPA acceptor plate.
The donor and acceptor plates were then sandwiched together, covered with a lid and incubated at 30° C. in a humid environment for 16 hours. After the incubation period the plates were removed from the incubator and the sandwich was dismantled. […] All sample supernatants were diluted and analysed using a Waters (Milford, MA, US) TQ-S LC-MS/MS system.
Permeability values (cm/s) were calculated using the following equation: […]

Series [4] relates to Caco-2 human colon carcinoma cell line. The series is described as follows: Caco-2 permeability assay. To be noted: 10 μM, 2 hours, 37° C. The class given is in vitro ADME. The procedure: Caco-2 apparent permeability (Papp) was determined in the Caco-2 human colon carcinoma cell line as described (Bavetsias et al., 2016). Cells were maintained (DMEM with 10% fetal bovine serum, penicillin, and streptomycin) in a humidified atmosphere with 5% CO2/95% air for 10 days. Cells were plated out onto a cell culture assembly plate (Millipore, UK), and monolayer confluency was checked using a TEER electrode prior to the assay. Media was washed off and replaced with HBSS buffer (pH7.4) containing compound (10 μM, 1% DMSO) in the appropriate apical and basal donor wells. HBSS buffer alone was placed in acceptor wells. In particular instances a specific P-gp inhibitor, LY335979 (5 μM), was added to the HBSS. The Caco-2 plate was incubated for 2 hours at 37° C. Samples from the apical and basolateral chambers were analysed using a Waters (Milford, MA, US) TQ-S LC-MS/MS system. The cell permeability properties of Abd-L compounds was compared to low (nadolol) and high (antipyrine) permeability compounds and a compound with high export (indinavir).
Apparent permeability (Papp) was determined as follows: […]
A general note: Passage across Caco-2 layers is used to estimate intestinal permeability.

Series [5] has as its target T3, LMO2-LID (Homo sapiens, UniProt P25791).
T3 construct: made in house; host or cells: E. coli BL21(DE3)-Rosetta2 pLysS
T3 sequence (P25791 26-156 limits assumed): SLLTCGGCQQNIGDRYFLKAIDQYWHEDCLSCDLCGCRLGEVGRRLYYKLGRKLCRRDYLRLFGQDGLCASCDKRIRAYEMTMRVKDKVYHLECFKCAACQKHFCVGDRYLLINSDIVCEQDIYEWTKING
T3 sequence (Q86U70 336-375 partner limits assumed): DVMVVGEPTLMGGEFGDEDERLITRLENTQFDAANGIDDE
As to the kind of experiment: WaterLOGSY NMR binding to LMO2-LID. The following applies: RT. As for the experimental part: as §1

Structures are written as SMILES. “And” between values parts separate entries of the source, which are not always exact repeats. Equal values may be shown once.

Regarding `COc1cccc(CN2CCN(c3nc(C(=O)Nc4ccc(OCc5ccccc5)cc4)co3)C2=O)c1` [Abd-L9, N-(4-(benzyloxy)phenyl)-2-(3-(3-methoxybenzyl)-2-oxoimidazolidin-1-yl)oxazole-4-carboxamide], in series [1], the “inhibition of LMO2-iDAb LMO2dm3 interaction (in words)” value (“inhibition” for short) is “most potent inhibitor” and the IC50 came out at 1.5 µM. For the same compound, in series [2], the “binding to LMO2-ΔLID by waterLOGSY NMR” value is “bind and showed binding and Direct binding”. Moreover, in series [3], the “PAMPA permeability (in words)” value is recorded as “best properties”. In series [4], the “Caco-2 cell permeability (in words)” value is given as “low transport” and the “Caco-2 efflux (in words)” value is recorded as “low efflux ratio”. In addition, the “binding to LMO2-LID by waterLOGSY NMR” value in series [5] is listed as “not”.
For the compound `O=C(NCc1ccc(Oc2ccccc2)cc1)c1coc(N2CCN(Cc3ccccc3)C2=O)n1` [Abd-L13, 2-(3-benzyl-2-oxoimidazolidin-1-yl)-N-(4-phenoxybenzyl)oxazole-4-carboxamide], the “binding to LMO2-ΔLID by waterLOGSY NMR” value in series [2] was “bind and showed binding and Direct binding”. The “binding to LMO2-LID by waterLOGSY NMR” value in series [5] was “not”.
As to `COc1ccc(NC(=O)c2cnc(N3CCN(Cc4ccc(Cl)cc4)C3=O)o2)cc1OC` [Abd-L8, 2-(3-(4-chlorobenzyl)-2-oxoimidazolidin-1-yl)-N-(3,4-dimethoxyphenyl)oxazole-5-carboxamide], the “inhibition” value in series [1] is “unable to inhibit”.
In series [1], `COc1cccc(CN2CCN(c3nc(C(=O)Nc4ccc(-n5cccc5)cc4)co3)CC2)c1` [Abd-L15, N-(4-(1H-pyrrol-1-yl)phenyl)-2-(4-(3-methoxybenzyl)piperazin-1-yl)oxazole-4-carboxamide] gave a half-maximal inhibitory concentration (IC50) of 16.6 µM.
The same measure, in the same setting: the same measure for `COc1cccc(CN2CCN(c3nc(C(=O)Nc4ccc(OCc5ccccc5)cc4)cs3)CC2)c1` [Abd-L17, N-(4-(benzyloxy)phenyl)-2-(4-(3-methoxybenzyl)piperazin-1-yl)thiazole-4-carboxamide]: 13 µM.
Same read-out and setting: the value for `COc1cccc(CN2CCN(c3nc(C(=O)Nc4ccc(-n5cccc5)cc4)cs3)CC2)c1` [Abd-L18, N-(4-(1H-pyrrol-1-yl)phenyl)-2-(4-(3-methoxybenzyl)piperazin-1-yl)thiazole-4-carboxamide] was 15.8 µM.
As to `COc1cccc(CN2CCCN(c3nc(C(=O)Nc4ccc(-n5cccc5)cc4)co3)C2=O)c1` [Abd-L24, N-(4-(1H-pyrrol-1-yl)phenyl)-2-(3-(3-methoxybenzyl)-2-oxotetrahydropyrimidin-1(2H)-yl)oxazole-4-carboxamide], the “inhibition” value in series [1] is recorded as “do not affect”.
Take `CS(=O)(=O)Nc1ccccc1NC(=O)c1cnc(N2CCN(Cc3ccccc3)C2=O)s1` [Abd-L5, 2-(3-benzyl-2-oxoimidazolidin-1-yl)-N-(2-(methylsulfonamido)phenyl)thiazole-5-carboxamide]: the “inhibition” value in series [1] is recorded as “unable to inhibit”.
`COc1cccc(CN2CCN(c3nc(C(=O)Nc4ccc(OCc5ccccc5)cc4)co3)CC2)c1` [Abd-L16, N-(4-(benzyloxy)phenyl)-2-(4-(3-methoxybenzyl)piperazin-1-yl)oxazole-4-carboxamide] gave a half-maximal inhibitory concentration (IC50) in series [1] of 1.2 µM.
In series [1], `COc1ccc(CN2CCN(c3nc(C(=O)Nc4ccc(-n5cccc5)cc4)co3)CC2)cc1` [Abd-L19, N-(4-(1H-pyrrol-1-yl)phenyl)-2-(4-(4-methoxybenzyl)piperazin-1-yl)oxazole-4-carboxamide] yielded an IC50 of 48.8 µM.
As to `O=C(NCCc1ccccc1)c1cnc(N2CCN(Cc3ccc(Cl)cc3)C2=O)o1` [Abd-L11, 2-(3-(4-chlorobenzyl)-2-oxoimidazolidin-1-yl)-N-phenethyloxazole-5-carboxamide], the “inhibition” value in series [1] was “unable to inhibit”.
Still for that read-out and setting: the same measure for `COc1cccc(CN2CCN(c3nccc(C(=O)Nc4ccc(-n5cccc5)cc4)n3)CC2)c1` [Abd-L25, N-(4-(1H-pyrrol-1-yl)phenyl)-2-(4-(3-methoxybenzyl)piperazin-1-yl)pyrimidine-4-carboxamide]: “do not affect”.
`N#Cc1cccc(CN2CCN(c3nc(C(=O)Nc4ccc(-n5cccc5)cc4)co3)C2=O)c1` [Abd-L10, N-(4-(1H-pyrrol-1-yl)phenyl)-2-(3-(3-cyanobenzyl)-2-oxoimidazolidin-1-yl)oxazole-4-carboxamide]: in series [1], the IC50 was ~1 µM and 1 µM.
